Test results reported in patent US20230276792A1, “SELECTIVE HERBICIDES BASED ON SUBSTITUTED ISOXAZOLIN CARBOXAMIDES AND CLOQUINTOCET-MEXYL” (Bayer Aktiengesellschaft, priority 2020, published 2023).

Experiments:
Assay type in all cases: in vivo
[1] = test system: spring barley, HORVS Montoya; experiment: Tank-mix post-emergence crop damage, herbicide with and without safener cloquintocet-mexyl, greenhouse; parameters: key to Reduction [Difference]: damage without safener − damage with safener, % points (0–100% scale); conditions: 10 DAT
Description: Seeds of crops (spring wheat, TRZAS; spring barley, HORVS; maize, ZEAMA) were placed in sandy loam soil in peat pots, covered with soil and cultivated in a greenhouse under good growth conditions. Two to three weeks after sowing, the test plants were treated at the 1 to 3-leaf stage. The herbicide/safener active compound combinations according to the invention, formulated as wettable powders or emulsion concentrates, and, in parallel tests, the correspondingly formulated individual active compounds were sprayed onto the green parts of the plants in various dosages using an amount of water of 300 l/ha (converted).
The pots were returned under good growing conditions in a glasshouse and a visual assessment of herbicidal effects was made at intervals from 1 to 3 weeks after herbicide application (DAT=days after treatment). Assessment was on a percentage basis in comparison with untreated control plants (0%=no injury, 100%=complete kill).
(§1) Reduction [Difference]=herbicide damage without safener−herbicide damage with safener
(§2) Reduction [%]=(Reduction [Difference]*100)/herbicide damage without safener
(§3) a) Plant Species, Variety: HORVS Montoya, Safener (SAF): Cloquintocet-Mexyl

[2] = test system: spring wheat, TRZAS Triso; experiment: Safener seed treatment, post-emergence herbicide application, crop damage; conditions: for HER effect + SAF [%] / Reduction [%]: cloquintocet-mexyl 0, 5 g a.i./kg seed; for HER effect [%]: without safener
Description: (§4) For safener seed treatment trials, sufficient seed amounts of the respective crops (spring wheat (TRZAS); spring barley (HORVS)) were weighed into screw cap glass bottles with a minimum volume trice of the seeds.
(§5) As a first step, specified safeners formulated as wettable powder (WP) or wettable granules (WG) were weighed out for the required dosages (g a.i./kg seed), corresponding to the seed amounts. The safener amounts were mixed with a coloured slurry blind formulation type, pre-diluted with milk at 3.5% fat rate (25 mgs slurry formulation plus 2 ml milk per 10 grams of seed). A tube roller was used for coating. The solutions were gradually pipetted each on the rotating seeds followed by coating for min. 3 hours until all liquid had been soaked up by the seeds. Thereafter, the coated seeds were put flat on open trays for drying over night at room temperature.
(§6) Treated seeds were then placed into pots (7 cm diameter) on the surface of sandy loam, pressed down, flat covered with additional soil and finally covered with sandy soil, also pressed down, watered, and kept under good growth conditions in a greenhouse, until the plants had reached 2-leaf-stage (BBCH 12).
(§7) At that stage, post-emergence application of the specified herbicides was done on: • a) pot sets containing plants with safener-coated seeds as described above, • b) as a reference, pot sets of plants without seed treatment.
(§8) The herbicides were formulated as wettable powder (WP). Equivalent to the spray area, compound amounts were weighed out and diluted related to the water application rate (300 l/ha) to an aqueous suspension plus additive (1 l/ha MERO). Dosage related equivalents were conventionally sprayed on trays with the potted plants.
(§9) After application, the test plants were kept under good growth conditions in a greenhouse. Assessment timings were 10 and 21 days after treatment (DAT) with the herbicide, by visual scoring of the crop damage in % (comparison of untreated with treated plants, either sprayed only with herbicide or with herbicide on plants with treated seeds).
as §1, §2
b) Plant Species, Variety: TRZAS Triso, Safener (SAF): Cloquintocet-Mexyl

[3] = test system: spring barley, HORVS Montoya; experiment: as above; parameters: key to Reduction [Difference]: % crop damage without safener minus % damage with safener; conditions: 10 DAT, cloquintocet-mexyl 0, 5 g a.i./kg seed
Description: as §4, §5, §6, §7, §8, §9, §1, §2, §3

[4] = HER dose 48 g a.i./ha, cloquintocet-mexyl 100 g a.i./ha
[5] = HER dose 32 g a.i./ha, cloquintocet-mexyl 100 g a.i./ha
[6] = 10 DAT, HER dose 1, 5 g a.i./ha

CCOC(=O)C1C=CC(NC(=O)C2(C(F)(F)F)CC(c3cc(OC)cc(OC)c3)=NO2)C1 (mixture of isomers) [Example 1.12]
HER effect + SAF [1, 4]: 10%
Reduction [%] [1, 4]: 83%
Reduction [Difference] [1, 4]: 50

CC1(C(=O)NC2CC=C(C(=O)NS(C)(=O)=O)C2)CC(c2cc(F)cc(F)c2)=NO1 (mixture of isomers) [Example 1.61]
HER effect + SAF [%] ([2]; 10 DAT, HER dose 8 g a.i./ha): 0%
Reduction [%] ([2]; 10 DAT, HER dose 8 g a.i./ha): 100%
HER effect [%] ([2]; 10 DAT, HER dose 8 g a.i./ha): 50%
HER effect + SAF [%] ([2]; 10 DAT, HER dose 32 g a.i./ha): 0%
Reduction [%] ([2]; 10 DAT, HER dose 32 g a.i./ha): 100%
HER effect [%] ([2]; 10 DAT, HER dose 32 g a.i./ha): 50%

C=CC1(C(=O)NC2COC(C(=O)OCCOC)C2)CC(c2cc(C)cc(F)c2)=NO1 (mixture of isomers) [Example 1.65]
HER effect + SAF [%] ([2]; 10 DAT, HER dose 8 g a.i./ha): 0%
HER effect [%] ([2]; 10 DAT, HER dose 8 g a.i./ha): 20%
Reduction [Difference] ([3]; HER dose 8 g a.i./ha): 80
HER effect + SAF ([3]; HER dose 32 g a.i./ha): 10%
Reduction [%] ([3]; HER dose 32 g a.i./ha): 88%
Reduction [Difference] ([3]; HER dose 32 g a.i./ha): 70

CCOC(=O)C1CC(NC(=O)C2(C)CC(c3cccc(F)c3)=NO2)CO1 (mixture of isomers) [Example 1.67]
Reduction [%] ([1]; HER dose 16 g a.i./ha, cloquintocet-mexyl 100 g a.i./ha): 83%
HER effect + SAF [%] ([2]; 10 DAT, HER dose 4 g a.i./ha): 10%
HER effect [%] ([2]; 10 DAT, HER dose 4 g a.i./ha): 50%
HER effect + SAF [%] ([2]; 10 DAT, HER dose 16 g a.i./ha): 20%
HER effect [%] ([2]; 10 DAT, HER dose 16 g a.i./ha): 70%
Reduction [%] ([3]; HER dose 4 g a.i./ha): 67%
Reduction [Difference] ([3]; HER dose 4 g a.i./ha): 20
Reduction [%] ([3]; HER dose 16 g a.i./ha): 67%

COC(=O)C1CC(NC(=O)C2(OC)CC(c3cc(F)cc(F)c3)=NO2)CO1 (mixture of isomers) [Example 1.72]
Reduction [%] ([1]; HER dose 8 g a.i./ha, cloquintocet-mexyl 50 g a.i./ha): 67%
HER effect + SAF [1, 5]: 20%
Reduction [%] [1, 5]: 60%
HER effect + SAF [%] ([2]; 21 DAT, HER dose 32 g a.i./ha): 10%
HER effect [%] ([2]; 21 DAT, HER dose 32 g a.i./ha): 60%

CC(C)OC(=O)C1CC(NC(=O)C2(C)CC(c3cccc(F)c3)=NO2)CO1 (mixture of isomers) [Example 1.78]
HER effect + SAF [%] [2, 6]: 0%
HER effect [%] [2, 6]: 20%
HER effect + SAF [%] ([2]; 10 DAT, HER dose 6 g a.i./ha): 0%
HER effect [%] ([2]; 10 DAT, HER dose 6 g a.i./ha): 70%
HER effect + SAF [%] ([2]; 10 DAT, HER dose 24 g a.i./ha): 10%
HER effect [%] ([2]; 10 DAT, HER dose 24 g a.i./ha): 70%

C=CCOC(=O)C1CC(NC(=O)C2(C=C)CC(c3cc(C)cc(F)c3)=NO2)CO1 (mixture of isomers) [Example 1.85]
HER effect + SAF ([3]; HER dose 32 g a.i./ha): 10%
Reduction [%] ([3]; HER dose 32 g a.i./ha): 88%
Reduction [Difference] ([3]; HER dose 32 g a.i./ha): 70
